These results are taken from patent US12472206B2, “Pharmaceutical composition containing cerium compound as active ingredient” (priority 2020, dated 2025).

Series [1] concerns 5/6 nephrectomized model rats. As to conditions: 5/6 nephrectomized rats, in feed.
Description: Slc:Wistar rat, 5/6 nephrectomized
(1) The 5/6 nephrectomized model rats were weighed, and classified into three groups.
(2) Each group was acclimatized with MR stock feed, under ad libitum feeding and ad libitum water drinking. The feeding cage was conditioned at room temperature 22±2° C., under illumination 12 hours a day.
(3) The animals were then bred with the prepared special feed under ad libitum feeding and ad libitum water drinking. The feeding cage was conditioned similarly to the acclimatization period, at room temperature 22±2° C., under illumination 12 hours a day.
(4) On Days 0, 7, 14, 21, and 28, rats were bred in metabolic cages for 24 hours. The animals were fed with Labo MR stock on Day 0, and with the special feed on days thereafter, during which the amounts of feed consumption, water consumption, urine and feces were measured, and the urine and feces were sampled.
(5) The animals were taken out of the metabolic cage and weighed, followed by blood collection with a winged needle. Approximately 400 μL of blood was collected, incubated at room temperature for one hour, and then centrifuged (1,700×g, 20 min) to obtain serum.
(6) On the final Day 28, the animals were fasted throughout the day, and then dissected. […] The collected blood was centrifuged (1,700×g, 20 min) to obtain serum. Liver, kidney, spleen, small intestine, and stomach of the rats that were exsanguinated to death were sampled. The small intestine and stomach were dissected, removed contents, and rinsed twice with PBS. The above sequence of procedures was repeated three times to assign six animals to each group. […]
The above four items were measured with use of Hitachi 7180 automatic analyzer.
ALT was measured only for blood samples collected on the last day.
The nature of series [2]: Phosphorus adsorption experiment, Example 2-3 (particle 1 vs lanthanum carbonate). Type of series: binding. As to conditions: one hour. The protocol: Three mmol/L aqueous phosphoric acid solutions with pH 2.5 and pH 7.0 were prepared. The pH was adjusted with Bis-Tris HCl buffer solution and glycine-HCl buffer solution (phosphoric acid, sodium chloride, and glycine from FUJIFILM Wako Pure Chemical Corporation; Bis-Tris from Dojindo Laboratories).
A freely selectable amount of particle 1 was added to each of the aqueous solutions.
Each of these dispersions was kept stirred at 38° C. for one hour in a thermostatic chamber.
Also, a freely selectable amount of a commercially available lanthanum carbonate reagent (from Nikki Corporation) was added in the same way, and each dispersion was kept stirred at 38° C. for one hour in a thermostatic chamber.
Each solution was then centrifuged (10,000×g, 5 min) for solid-liquid separation, and the supernatant was collected.
Phosphoric acid remained in the collected supernatant was evaluated by colorimetry, with use of a commercially available phosphoric acid detection reagent (Trade name: PiBlue Phosphate Assay Kit; POPB-500) that contains molybdenum blue and malachite green.
The reciprocal of the mass of the particle required to entirely adsorb 3 mmol of phosphoric acid was defined as adsorptivity to phosphorus, and was illustrated in FIG. 6.

In series [3] the test system is adenine nephropathy model rats. The experiment in a line: Animal experiment (2) (Example 7): adenine nephropathy model rats fed with cerium-containing feed, blood analysis. Type of series: in vivo.
From the text: Adenine nephropathy model rats were fed with a dispersion (cerium oxide dispersion) that contains cerium(III) ion as a cerium compound containing trivalent cerium, and cerium oxide.
• Rat: Slc:Wistar rat (male) delivered at 12 weeks of age (Japan SLC, Inc.) • Powder feed: AIN-93G powder feed (Funabashi Farm Co., Ltd.) • Feed for laboratory animal: Labo MR Stock (Nosan Corporation) • Adenine: (Tokyo Chemical Industry Co., Ltd.) • Cerium oxide dispersion: Cerium oxide dispersion prepared in [Preparation of Cerium Oxide Dispersion] (aqueous dispersion of cerium oxide with 10.0% by mass cerium oxide, mole ratio of cerium oxide:cerium(III)=9:1 • Cerium(III) chloride: cerium(III) chloride heptahydrate (Nikki Corporation) • Water or hot water: water passed through a water purifier, and boiled in a pot • Mixer for feed preparation: Compact Kitchen Machine MUM4415JP (Bosch GmbH) • Manual sausage maker: sausage machine (COM4SPORT) • Wing blood collection needle for animal experiment: CL-4597 (CLEA Japan, Inc.) [Preparation of Cerium Oxide Dispersion]
A special feed was prepared by modifying step (ii) for preparing the feed for normal group, as described below. […] Approximately 100 mL of hot water was then added evenly.
(§1) A special feed was prepared by modifying steps (i) and (ii) for (2) Feed for Adenine Group, as described below. (i) (Ade+Dispersion (A)): Weighed was 246.1 g of the powder feed, which was then stirred with a kitchen machine. (ii) (Ade+Dispersion (A)): While keeping the feed under stirring, 0.625 g of adenine was added in small portions, the content was stirred with the kitchen machine for 3 minutes, the feed adhered on the wall surface was scraped off, and the content was stirred again for 3 minutes. Next, while keeping the feed under stirring, 32.7 g of cerium oxide dispersion was added in small portions, the content was stirred with the kitchen machine for 3 minutes, the feed adhered on the wall surface was scraped off, and the content was stirred again for 3 minutes. Approximately 70 mL of hot water was then added evenly.
as §1, with “(ii)” for “A special feed was prepared by modifying steps (i) and (ii) for (2) Feed for Adenine Group, as described below. (i) (Ade+Dispersion (A)): Weighed was 246.1 g of the powder feed, which was then stirred with a kitchen machine. (ii)”, “(B)):” for “(A)):”, “98.2” for “32.7”, “12” for “70”
(1) Rats were weighed, and classified into four groups.
FIGS. 12 to 15 illustrate graphs plotting on the ordinates test values of serum creatinine (CRE), blood urea nitrogen (BUN), serum phosphorus (IP), or alanine aminotransferase (ALT) of the blood samples collected at the time of the dissection, and plotting on the abscissae total molar amount of cerium per 100 g of feed.
The effect of cerium(III) chloride was examined with use of the following feeds (4-1) to (4-3), in place of the (3-1) Feed for adenine+cerium oxide dispersion (A) group, and the (3-2) Feed for adenine+cerium oxide dispersion (B) group described in Preparation of Feeds according to Example 7-1. […]

The mark [4] stands for this setting: adenine nephropathy rats, in feed, blood collected at dissection.

SMILES strings stand for the structures. “Also recorded” adds a separate entry of the source.

With `O=C([O-])[O-].O=C([O-])[O-].O=C([O-])[O-].[La+3].[La+3]` [lanthanum carbonate], the “blood urea nitrogen (BUN)” value in series [1] (Days 0-28) is reported as “slightly increase as compared with the cerium oxide-added groups”. Besides, the “serum creatinine (CRE)” value in series [1] (Days 0-28) is “slightly increase as compared with the cerium oxide-added groups”. The “serum ALT (GPT) level” value in series [1] (blood of the last day) is given as “distinctively increased as compared with those of the non-added group”. Besides, the “mass of the particle required to entirely adsorb 3 mmol of phosphoric acid” value in series [2] (pH 2.5, 38° C.) was found to be 1.15 g; in series [2] (pH 7.0, 38° C.), 5.95 g.
In the case of `O.O.O.O.O.O.O.[Ce+3].[Cl-].[Cl-].[Cl-]` [cerium chloride, cerium(III) chloride heptahydrate], the “effects on CRE, BUN and IP relative to the cerium oxide dispersion, per molar amount of cerium” value in series [3] (adenine group normalized at 100) lay within 4 to 9 times. In addition, in series [3] (setting [4]), the “alanine aminotransferase (ALT)” value is listed as “equivalent to that in the normal group; also recorded: equivalent to the level of the normal group”, the “blood urea nitrogen (BUN)” value is given as “declines depending on the cerium chloride content (mol) in 100 g of feed; also recorded: decrease as the cerium chloride content in the feed increased”, the “serum creatinine (CRE)” value is “declines depending on the cerium chloride content (mol) in 100 g of feed; also recorded: decrease as the cerium chloride content in the feed increased” and the “serum phosphorus (IP)” value is reported as “declines depending on the cerium chloride content (mol) in 100 g of feed; also recorded: decrease as the cerium chloride content in the feed increased”.
